Laboratory results: ChEMBL document CHEMBL6177962, “Design, synthesis and biological evaluation of 2-arylbenzo[b]furan-4-vinylcarbonyl derivatives based on Salvianolic acid C as antioxidant neuroprotective agents for the treatment of ischemic stroke” (Eur J Med Chem, 2025)
Calls of active or inactive are those of the source. No cut-off for these calls is given here.

How the values were obtained:
PC-12 [1] = assay: Cytotoxicity against rat PC12 cells assessed as cell viability at 40 uM incubated for 24 hrs by CCK-8 assay relative to control; format: functional; details: read-out: Activity
PC-12 [2] = assay: Cytotoxicity against rat PC12 cells assessed as cell viability at 10 uM incubated for 24 hrs by CCK-8 assay relative to control; format: functional; details: read-out: Activity
[3] = Cytotoxicity against mouse RAW cells assessed as cell viability; format: toxicity, cell-based; design: concentration or dose not given beside the values; details: read-out: Activity
PC-12 [4] = assay: Antioxidant activity in t-BHP -induced rat PC12 cells at 2.5 to 20 uM; format: functional, cell-based; details: dose 2.5-20 µM
PC-12 [5] = assay: Neuroprotective activity against t-BHP induced oxidative damage in rat PC12 cells model assessed as cell viability at 2.5 to 20 uM incubated for 24 hrs by CCK-8 assay; format: functional, cell-based; details: dose 2.5-20 µM
Rattus norvegicus [6] = assay: (§1) Neuroprotective activity against cerebral ischemia-reperfusion injury in MCAO rat model assessed as reduction in infarct area at 10 mg/kg, iv treated after 2 hrs ischemia followed by reperfusion measured after 1 week of post-reperfusion by TTC staining based analysis; format: functional, organism-based; details: time 1.0 weeks
PC-12 [7] = assay: Neuroprotective activity against t-BHP induced oxidative damage in rat PC12 cells model assessed as reduction in intracellular ROS level at 10 uM incubated for 24 hrs by DCFH-DA probe based analysis; format: functional, cell-based
Rattus norvegicus [8] = assay: as §1, with “ROS accumulation in cortex” for “infarct area”, “dihydroethidium” for “TTC”, “based fluorescence microscopic” for “based”; format: functional, organism-based; details: time 1.0 weeks
PC-12 [9] = assay: Neuroprotective activity against t-BHP induced oxidative damage in rat PC12 cells model assessed as reduction in intracellular ROS level at 10 uM incubated for 24 hrs by DCFH-DA probe based flow cytometry analysis; format: functional, cell-based

Compound	viability at 40 µM (PC-12 [1])	viability at 10 µM (PC-12 [2])	also measured
COc1ccc(C(=O)/C=C/c2ccc(OC)c3oc(-c4ccc(C)cc4)cc23)cc1	99.5%	56.8%	–
COc1ccc(/C=C/C(=O)c2ccc(N3CCOCC3)cc2)c2cc(-c3ccc(C)cc3)oc12	85%	77.9%	–
COc1cc(C(=O)/C=C/c2ccc(OC)c3oc(-c4ccc(C)cc4)cc23)cc(OC)c1O	82%	37.7%	–
COc1cc(C(=O)/C=C/c2ccc(OC)c3oc(-c4ccc(C)cc4)cc23)ccc1O	72.8%	36.3%	–
COc1ccc(/C=C/C(=O)c2cccc(O)c2)c2cc(-c3ccc(C)cc3)oc12	80.6%	37.7%	viability [3]: < 80%
COc1ccc(C(=O)/C=C/c2ccc(OC)c3oc(-c4ccc(C)cc4)cc23)cc1O	69.2%	14.9%	–
COC(=O)[C@H](Cc1c[nH]c2ccccc12)NC(=O)/C=C/c1ccc(OC)c2oc(-c3cc(OC)cc(OC)c3)cc12	105%	79.4%	–
COc1cc(OC)cc(-c2cc3c(/C=C/C(=O)c4cc(OC)c(OC)c(OC)c4)ccc(OC)c3o2)c1	109%	89.2%	–
COc1ccc(/C=C/C(=O)NCCc2ccccc2)c2cc(-c3ccc(C)cc3)oc12	99.1%	93.8%	–
COc1ccc(C(=O)/C=C/c2ccc(OC)c3oc(-c4ccc(C)cc4)cc23)cc1F	98.8%	50.8%	–
COC(=O)[C@H](Cc1c[nH]c2ccccc12)NC(=O)/C=C/c1ccc(OC)c2oc(-c3ccc(OC)cc3)cc12	96%	94.4%	–
CC(C)(C)OO [TERT-BUTYL HYDROPEROXIDE]	–	52.1%	–
COc1cc(C(=O)/C=C/c2ccc(OC)c3oc(-c4ccc(C)cc4)cc23)cc(OC)c1OC	102%	51.6%	–
COC(=O)CNC(=O)/C=C/c1ccc(OC)c2oc(-c3ccc(C)cc3)cc12	93.9%	68.9%	–
COC(=O)[C@H](Cc1c[nH]c2ccccc12)NC(=O)/C=C/c1ccc(OC)c2oc(-c3ccc(OC)c(OC)c3)cc12	111%	57.1%	–
COC(=O)[C@H](CC1CCCCC1)NC(=O)/C=C/c1ccc(OC)c2oc(-c3ccc(C)cc3)cc12	96.1%	82.1%	–
COc1cc(OC)cc(C(=O)/C=C/c2ccc(OC)c3oc(-c4ccc(C)cc4)cc23)c1	92.2%	76.1%	–
COc1ccc(-c2cc3c(/C=C/C(=O)c4cc(OC)c(OC)c(OC)c4)ccc(OC)c3o2)cc1OC	105%	95.5%	Activity (PC-12 [4]): Active; Activity (PC-12 [5]): Active
COc1ccc(/C=C/C(=O)c2ccc3c(c2)OCO3)c2cc(-c3ccc(C)cc3)oc12	95%	58.1%	–
CC1=NN(c2ccccc2)C(=O)C1	–	–	Activity (Rattus norvegicus [6]): Active; Activity (PC-12 [7]): Active; Activity (Rattus norvegicus [8]): Active; Activity (PC-12 [9]): Active
COC(=O)[C@@H]1CCC(=O)N1C(=O)/C=C/c1ccc(OC)c2oc(-c3ccc(C)cc3)cc12	95.3%	91%	–
COc1cccc(C(=O)/C=C/c2ccc(OC)c3oc(-c4ccc(C)cc4)cc23)c1	119%	55.7%	–

Compound	viability at 40 µM (PC-12 [1])	viability at 10 µM (PC-12 [2])	also measured
COc1cccc(C(=O)/C=C/c2ccc(OC)c3oc(-c4ccc(C)cc4)cc23)c1OC	78.2%	67.5%	–
CCCC[C@H](NC(=O)/C=C/c1ccc(OC)c2oc(-c3ccc(C)cc3)cc12)C(=O)OC	93.5%	56%	–
COc1cc(OC)cc(-c2cc3c(/C=C/C(=O)NCCc4ccc(O)c(O)c4)ccc(OC)c3o2)c1	98.7%	76.7%	viability [3]: < 80%
COC(=O)[C@@H]1CCCN1C(=O)/C=C/c1ccc(OC)c2oc(-c3ccc(C)cc3)cc12	75.5%	32.3%	–
COc1ccc(/C=C/C(=O)NCCc2ccc(O)c(O)c2)c2cc(-c3ccc(C)cc3)oc12	103%	99.3%	Activity (PC-12 [4]): Active; Activity (PC-12 [5]): Active
COc1ccc(-c2cc3c(/C=C/C(=O)c4ccc(O)c(OC)c4)ccc(OC)c3o2)cc1	116%	77.2%	–
COc1ccc(-c2cc3c(/C=C/C(=O)NCCc4ccc(O)c(O)c4)ccc(OC)c3o2)cc1	98.2%	99.2%	Activity (PC-12 [4]): Active; Activity (PC-12 [5]): Active
COc1cc(C(=O)/C=C/c2ccc(OC)c3oc(-c4ccc(OC)c(OC)c4)cc23)ccc1O	93.8%	12.9%	viability [3]: < 80%
CC[C@H](NC(=O)/C=C/c1ccc(OC)c2oc(-c3ccc(C)cc3)cc12)C(=O)OC	84%	66.4%	–
COc1cc(C(=O)/C=C/c2ccc(OC)c3oc(-c4ccc(C)cc4)cc23)ccc1F	102%	83.8%	–
COc1ccc(/C=C/C(=O)c2ccc(O)cc2)c2cc(-c3ccc(C)cc3)oc12	84.1%	55.9%	viability [3]: < 80%
COc1ccc(C(=O)/C=C/c2ccc(OC)c3oc(-c4ccc(C)cc4)cc23)cc1OC	80.1%	42.9%	–
COC(=O)[C@@H](NC(=O)/C=C/c1ccc(OC)c2oc(-c3ccc(C)cc3)cc12)C(C)C	94.2%	73.1%	–
COc1ccc(C(=O)/C=C/c2ccc(OC)c3oc(-c4ccc(C)cc4)cc23)c(OC)c1OC	83.9%	71.9%	–
COC(=O)[C@@H](NC(=O)/C=C/c1ccc(OC)c2oc(-c3ccc(C)cc3)cc12)c1ccc(O)cc1	92%	69.7%	–
COc1ccc(-c2cc3c(/C=C/C(=O)c4cc(OC)c(OC)c(OC)c4)ccc(OC)c3o2)cc1	72.9%	43.7%	viability [3]: < 80%
COc1ccc(-c2cc3c(/C=C/C(=O)NCCc4ccc(O)c(O)c4)ccc(OC)c3o2)cc1OC	104%	70.7%	–
COC(=O)[C@@H](NC(=O)/C=C/c1ccc(OC)c2oc(-c3ccc(C)cc3)cc12)c1ccccc1	99.3%	74.1%	–
COc1ccc(/C=C/C(=O)c2ccco2)c2cc(-c3ccc(C)cc3)oc12	107%	78.5%	viability [3]: < 80%
COc1cc(OC)cc(-c2cc3c(/C=C/C(=O)c4ccc(O)c(OC)c4)ccc(OC)c3o2)c1	94.6%	45.6%	–
COC(=O)[C@H](Cc1c[nH]c2ccccc12)NC(=O)/C=C/c1ccc(OC)c2oc(-c3ccc(C)cc3)cc12	117%	66.1%	–
